Experimental data as given in PubChem BioAssay AID1259407 (Chemical Carcinogenesis Research Information System (CCRIS), 2018).
Activity calls are given as the source filed them. How the calls were made is not given here.

System: CCRIS mutagenicity, Ames/micronucleus/aberration tests
Test: CCRIS mutagenicity studies
[1] = Test System: AMES SALMONELLA TYPHIMURIUM, Strain/Indicator: TA98, Metabolic Activation: NONE, Method: STANDARD PLATE
[2] = Test System: AMES SALMONELLA TYPHIMURIUM, Strain/Indicator: TA100, Metabolic Activation: NONE, Method: STANDARD PLATE
[3] = Test System: AMES SALMONELLA TYPHIMURIUM, Strain/Indicator: TA1535, Metabolic Activation: NONE, Method: STANDARD PLATE
[4] = Test System: AMES SALMONELLA TYPHIMURIUM, Strain/Indicator: TA98, Metabolic Activation: RAT, LIVER, S-9, AROCLOR 1254, Method: STANDARD PLATE
[5] = Test System: AMES SALMONELLA TYPHIMURIUM, Strain/Indicator: TA100, Metabolic Activation: RAT, LIVER, S-9, AROCLOR 1254, Method: STANDARD PLATE
[6] = Test System: AMES SALMONELLA TYPHIMURIUM, Strain/Indicator: TA98, Metabolic Activation: NONE, Method: PREINCUBATION
[7] = Test System: AMES SALMONELLA TYPHIMURIUM, Strain/Indicator: TA100, Metabolic Activation: NONE, Method: PREINCUBATION
[8] = Test System: Ames Salmonella typhimurium, Strain/Indicator: TA102, Metabolic Activation: None, Method: Preincubation
[9] = Test System: Ames Salmonella typhimurium, Strain/Indicator: TA102, Metabolic Activation: Rat, Liver, S-9, Aroclor 1254 in 0.154 M KCl, Method: Preincubation

N#Cc1cc(I)c(O)c([N+](=O)[O-])c1
mutagenic call (End Point: In vivo chromosomal aberrations, Test System: Bone marrow cells, Species: Mouse, Strain/Sex: Swiss/Male, Route: Intraperitoneal): active; positive (structural changes) | mutagenic call [1]: inactive; negative | mutagenic call (Test System: AMES SALMONELLA TYPHIMURIUM, Strain/Indicator: TA98, Metabolic Activation: RAT, LIVER, S-9, KANECHLOR 400, Method: STANDARD PLATE): inactive; negative | mutagenic call [2]: inactive; negative | mutagenic call (Test System: AMES SALMONELLA TYPHIMURIUM, Strain/Indicator: TA100, Metabolic Activation: RAT, LIVER, S-9, KANECHLOR 400, Method: STANDARD PLATE): inactive; negative | mutagenic call [3]: inactive; negative | mutagenic call (Test System: AMES SALMONELLA TYPHIMURIUM, Strain/Indicator: TA1535, Metabolic Activation: RAT, LIVER, S-9, KANECHLOR 400, Method: STANDARD PLATE): inactive; negative | mutagenic call (Test System: AMES SALMONELLA TYPHIMURIUM, Strain/Indicator: TA1537, Metabolic Activation: NONE, Method: STANDARD PLATE): inactive; negative | mutagenic call (Test System: AMES SALMONELLA TYPHIMURIUM, Strain/Indicator: TA1537, Metabolic Activation: RAT, LIVER, S-9, KANECHLOR 400, Method: STANDARD PLATE): inactive; negative | mutagenic call (Test System: AMES SALMONELLA TYPHIMURIUM, Strain/Indicator: TA1538, Metabolic Activation: RAT, LIVER, S-9, KANECHLOR 400, Method: STANDARD PLATE): inactive; negative

CNc1ccc(Cl)cc1
mutagenic call (Test System: UDS RODENT HEPATOCYTES, Strain/Indicator: THY INCORP (NON-S-PHASE), Metabolic Activation: NONE, Method: AUTORADIOGRAPHY): active; positive

O=C(/C=C/c1ccccc1)OC/C=C/c1ccccc1
mutagenic call (Test System: AMES SALMONELLA TYPHIMURIUM, Strain/Indicator: TA1538, Metabolic Activation: NONE, Method: PREINCUBATION): active; positive | mutagenic call (Test System: Mouse lymphoma, Strain/Indicator: L5178Y (tk+/tk-), Metabolic Activation: None, Method: Suspension/plate): active; inconclusive (previous evaluation positive) | mutagenic call (Test System: Mouse lymphoma, Strain/Indicator: L5178Y (tk+/tk-), Metabolic Activation: Rat, Liver, S-9, Aroclor 1254, Method: Suspension/plate): active; positive

O=c1[nH]cc2ccc3cccc4ccc1c2c34
mutagenic call [1]: inactive; negative | mutagenic call [4]: inactive; negative | mutagenic call [2]: inactive; negative | mutagenic call [5]: inactive; negative

Nc1c(Cl)cc([N+](=O)[O-])cc1Cl
mutagenic call (Test System: AMES SALMONELLA TYPHIMURIUM, Strain/Indicator: TA98, Metabolic Activation: HAMSTER, LIVER, S-9, AROCLOR 1254 (30%), Method: PREINCUBATION): active; positive | mutagenic call [6]: active; positive | mutagenic call (Test System: AMES SALMONELLA TYPHIMURIUM, Strain/Indicator: TA98, Metabolic Activation: RAT, LIVER, S-9, AROCLOR 1254 (30%), Method: PREINCUBATION): active; positive | mutagenic call (Test System: AMES SALMONELLA TYPHIMURIUM, Strain/Indicator: TA100, Metabolic Activation: HAMSTER, LIVER, S-9, AROCLOR 1254 (30%), Method: PREINCUBATION): inactive; negative | mutagenic call [7]: inactive; negative | mutagenic call (Test System: AMES SALMONELLA TYPHIMURIUM, Strain/Indicator: TA100, Metabolic Activation: RAT, LIVER, S-9, AROCLOR 1254 (30%), Method: PREINCUBATION): inactive; negative | mutagenic call (Test System: AMES SALMONELLA TYPHIMURIUM, Strain/Indicator: TA100, Metabolic Activation: RAT, LIVER, S-9, KANECHLOR 500, Method: PREINCUBATION): inactive; negative

CNC(=O)C(C)SCCSP(=O)(OC)OC (stereo unspecified)
mutagenic call (Test System: E. COLI, Strain/Indicator: WP2, Metabolic Activation: NONE, Method: STANDARD PLATE): active; positive | mutagenic call (Test System: E. COLI, Strain/Indicator: WP2 UVRA, Metabolic Activation: NONE, Method: STANDARD PLATE): active; positive

Cc1ccc(NO)cc1C
mutagenic call [7]: active; positive | mutagenic call (Test System: AMES SALMONELLA TYPHIMURIUM, Strain/Indicator: TA100, Metabolic Activation: RAT, LIVER, S-9, PCB, Method: PREINCUBATION): active; positive

O=C(O[C@@H]1Cc2c(O)cc(O)cc2O[C@H]1c1cc(O)c(O)c(O)c1)c1cc(O)c(O)c(O)c1
mutagenic call [8]: inactive; negative | mutagenic call [9]: inactive; negative

Cc1cccc2ccc([N+](=O)[O-])cc12
mutagenic call [6]: active; positive

CN=[N+](C)[O-]
mutagenic call (Test System: AMES SALMONELLA TYPHIMURIUM, Strain/Indicator: TA100, Metabolic Activation: RAT, LIVER, S-9, KC500 OR PHENOBARBITAL, Method: LIQUID SUSPENSION): active; positive | mutagenic call (Test System: AMES SALMONELLA TYPHIMURIUM, Strain/Indicator: TA1535, Metabolic Activation: HAMSTER, LIVER, S-9, AROCLOR 1254, Method: PREINCUBATION): inactive; negative | mutagenic call (Test System: AMES SALMONELLA TYPHIMURIUM, Strain/Indicator: TA1535, Metabolic Activation: NONE, Method: PREINCUBATION): inactive; negative | mutagenic call [3]: inactive; negative | mutagenic call (Test System: AMES SALMONELLA TYPHIMURIUM, Strain/Indicator: TA1535, Metabolic Activation: RAT, LIVER, S-9, AROCLOR 1254, Method: PREINCUBATION): inactive; negative | mutagenic call (Test System: AMES SALMONELLA TYPHIMURIUM, Strain/Indicator: TA1535, Metabolic Activation: RAT, LIVER, S-9, KC500 OR PHENOBARBITAL, Method: LIQUID SUSPENSION): active; positive | mutagenic call (Test System: AMES SALMONELLA TYPHIMURIUM, Strain/Indicator: YG7108, Metabolic Activation: NONE, Method: STANDARD PLATE): active; positive | mutagenic call (Test System: E. COLI, Strain/Indicator: WP2 UVRA, Metabolic Activation: HAMSTER, LIVER, S-9, AROCLOR 1254, Method: PREINCUBATION): inactive; negative | mutagenic call (Test System: E. COLI, Strain/Indicator: WP2 UVRA, Metabolic Activation: HAMSTER, LIVER, S-9, Method: PREINCUBATION): inactive; negative | mutagenic call (Test System: E. COLI, Strain/Indicator: WP2 UVRA, Metabolic Activation: MOUSE, LIVER, S-9, AROCLOR 1254, Method: PREINCUBATION): inactive; negative | mutagenic call (Test System: E. COLI, Strain/Indicator: WP2 UVRA, Metabolic Activation: MOUSE, LIVER, S-9, Method: PREINCUBATION): inactive; negative | mutagenic call (Test System: E. COLI, Strain/Indicator: WP2 UVRA, Metabolic Activation: NONE, Method: PREINCUBATION): inactive; negative | mutagenic call (Test System: E. COLI, Strain/Indicator: WP2 UVRA, Metabolic Activation: RAT, LIVER, S-9, AROCLOR 1254, Method: PREINCUBATION): inactive; negative | mutagenic call (Test System: E. COLI, Strain/Indicator: WP2 UVRA, Metabolic Activation: RAT, LIVER, S-9, Method: PREINCUBATION): inactive; negative

Oc1cc(O)cc(/C=C/c2ccc(O)c(O)c2)c1
mutagenic call [8]: inactive; negative | mutagenic call [9]: inactive; negative

Nc1ccn([C@@H]2O[C@H](CO)[C@@H](O)C2(F)F)c(=O)n1
mutagenic call (End Point: CHROMOSOMAL ABERRATIONS, Test System: BONE MARROW, Species: MOUSE, Strain/Sex: SWISS/MALE, FEMALE, Route: INTRAPERITONEAL): active; positive (structural changes) | mutagenic call (End Point: IN VITRO CHROMOSOMAL ABERRATIONS, Test System: HUMAN PERIPHERAL LYMPHOCYTES, Metabolic Activation: NONE): active; positive; (structural changes: breaks, fragments) | mutagenic call (End Point: IN VITRO CHROMOSOMAL ABERRATIONS, Test System: HUMAN PERIPHERAL LYMPHOCYTES, Strain/Sex: MALE, FEMALE, Metabolic Activation: NONE): active; positive (structural changes) | mutagenic call (End Point: MICRONUCLEUS, Test System: BONE MARROW, Species: MOUSE, Strain/Sex: SWISS/MALE, FEMALE, Route: INTRAPERITONEAL): active; positive

O=C(/C=C/c1cccc([N+](=O)[O-])c1)c1ccccc1
mutagenic call [1]: inactive; negative | mutagenic call [4]: inactive; negative | mutagenic call [2]: inactive; negative | mutagenic call [5]: inactive; negative
